# In Sander's compilation of Henry's law constants (doi:10.1021/je00026a010):
# Assay: Henry solubility constant Hcp at 298.15 K (mol/(m3 Pa))
# Settings: reference: Leighton and Calo (1981)
row,SMILES,Henry solubility constant Hcp
1,"CC(Cl)(Cl)Cl [1,1,1-trichloroethane]",0.00049
2,"ClC(Cl)C(Cl)Cl [1,1,2,2-tetrachloroethane]",0.027
3,"ClCC(Cl)Cl [1,1,2-trichloroethane]",0.012
4,"C=C(Cl)Cl [1,1-dichloroethene]",0.00026
5,"ClCC(Cl)CCl [1,2,3-trichloropropane]",0.029
6,"CC(Cl)CCl (stereo not given) [1,2-dichloropropane]",0.0034
7,"ClCCCCl [1,3-dichloropropane]",0.01
8,"ClCCCCCl [1,4-dichlorobutane]",0.02
9,"ClCCCCCCl [1,5-dichloropentane]",0.018
10,CCCCCl [1-chlorobutane],0.00059
11,CCCCCCCl [1-chlorohexane],0.00041
12,CCCCCCl [1-chloropentane],0.00041
13,CCC(C)Cl (stereo not given) [2-chlorobutane],0.00041
14,c1ccccc1 [benzene],0.0018
15,Clc1ccccc1 [chlorobenzene],0.003
16,ClCCl [dichloromethane],0.003
17,Cc1ccccc1 [methylbenzene],0.0015
18,ClC(Cl)=C(Cl)Cl [tetrachloroethene],0.00061
19,ClC(Cl)(Cl)Cl [tetrachloromethane],0.00036
20,ClC=C(Cl)Cl [trichloroethene],0.001
